Holding throughout (type): functional
The subject of assay [1] is P388. In words: Cytotoxicity against mouse P388 cells xenografted in BDF1 mouse at 6 mg/kg relative to control.
The subject of assay [2] is P388. In words: Cytotoxicity against mouse P388 cells xenografted in BDF1 mouse at 12.5 mg/kg relative to control.
Assay [3] in a line: Growth inhibition of mouse EAC cells xenografted in CF1 mouse at 3 mg/kg/day, ip. The conditions noted are these: Ehrlich, route intraperitoneal.
For assay [4], the system named is P388. In words: Cytotoxicity against mouse P388 cells xenografted in BDF1 mouse at 4 mg/kg relative to control.
For assay [5], the system named is P388. In words: Cytotoxicity against mouse P388 cells xenografted in BDF1 mouse at 8 mg/kg relative to control.
For assay [6], the system named is P388. In words: Cytotoxicity against mouse P388 cells xenografted in BDF1 mouse at 16 mg/kg relative to control.
The test system of assay [7] is P388. In words: Cytotoxicity against mouse P388 cells xenografted in CDF1 mouse at 1 mg/kg relative to control.
Assay [8] concerns P388. In words: Cytotoxicity against mouse P388 cells xenografted in CDF1 mouse at 2 mg/kg relative to control.
Assay [9] deals with P388. In words: Cytotoxicity against mouse P388 cells xenografted in CDF1 mouse at 4 mg/kg relative to control.
Assay [10] has as its system P388. In words: Cytotoxicity against mouse P388 cells xenografted in CDF1 mouse at 10 mg/kg relative to control.
Assay [11] concerns P388. In words: Cytotoxicity against mouse P388 cells xenografted in CDF1 mouse at 16 mg/kg relative to control.

By T/C is commonly meant the result in the treated group divided by that in the control group, in per cent. For the compound `O=c1c(O[C@@H]2O[C@H](CO)[C@@H](O)[C@H](O)[C@H]2O)c(-c2ccc(O)cc2)oc2cc(O)cc(O)c12` [ASTRAGALIN], the T/C in the assay on P388 [1] is reported as 122%; in the assay with P388 [2], 130%.
Usually inhibition in vivo stands for how much of the control response was suppressed. A lower inhibition in vivo goes with a response near the control. Take `COc1cc2cc(Oc3ccc4ccc(=O)oc4c3)c(=O)oc2cc1O` [DAPHNORETIN]: in assay [3], the inhibition in vivo at 3 mg/kg/day turned out to be 97%.
As to `COc1cc(-c2cc(=O)c3c(O)cc(O)cc3o2)cc(OC)c1O` [TRICIN], the T/C in the assay on P388 [1] came to 133%; in the assay on P388 [2] it was 174%.
As to `COc1cc(C[C@@H]2COC(=O)[C@@]2(O)Cc2ccc(O)c(OC)c2)ccc1O` [WIKSTROMOL], the T/C with P388 [4] is recorded as 122%; in the assay on P388 [5], 130%; in the assay on P388 [6] it was 130%; in the assay on P388 [7], 130%; with P388 [8] it was 141%; in the assay with P388 [9], 137%. The values for the T/C in the assay on P388 [10] and with P388 [11] were 146% and 154%, respectively.
